For one series, the system named is P21. In words: Senescence marker P21 in lung alveolar cells of bleomycin-treated mice. The class given is in vivo, mouse. The conditions noted are these: following bleomycin treatment. As for the experimental part: FIGS. 3-17 and FIGS. 20-21 depict experiments involving the use of a different 5 lipid LNP composition where lung fibrosis was induced in third generation (G3) TERT knock-out (KO) mice, which have telomere lengths that are similar to those of humans. Bleomycin was administered via oropharyngeal aspiration at 2.0 U/kg. For FIGS. 13-16, an initial dose of bleomycin was administered via oropharyngeal aspiration at 0.5 U/kg one week prior to the 2.0 U/kg dose. LNPs were formulated with firefly luciferase mRNA (Ctrl) or TERT mRNA (mouse SEQ ID NO: 2, including synthetic 5′ UTR (SEQ ID NO: 3), wt mTert coding sequence (SEQ ID NO: 4) and mouse alpha-globin 3′ UTR (SEQ ID NO: 5)) (referred to as “TERT mRNA LNP” herein or “TERT” or “TERT mRNA” in the figures) and the lipids in the ratios of Table 3. The DOTAP molar ratio is 2.27 times higher in the 5 lipid LNP of Table 3. Mice were dosed at 1.5 mg/kg twice a week for two weeks beginning on day 7 post bleomycin. Some mice received bleomycin, but not LNP treatment (No LNP), and control mice received saline instead of bleomycin and LNP treatment (No Bleo). Tissues were harvested on day 24 post bleomycin. Lungs were […]. […] Telomerase activity was measured in lung tissue lysate using the telomeric repeat amplification protocol (TRAP) assay. […]

Series [1] can be described thus: Pharmacokinetics of 5-lipid LNP (DOTAP by LC-MS/MS). The class given is in vivo, mouse. The arrangement: Decay constant: unit not given here. The note with it: 1.0 mg mRNA/kg; for half-life: mouse, 1 mg/kg. As for the experimental part:
Methods: LNPs were formulated using lipid molar ratios in Table 1 with mRNA encoding human telomerase. CD1 male mice were dosed at 1.0 mg mRNA/kg of body weight, and plasma and tissue were collected at time points 0 (<5 min) and 24 hours. DOTAP was measured using LC-MS/MS. mRNA was measured by qRT-PCR. “Liver Rest” is the liver sample excluding the left lobe.

Setting [2] is: Liver Left Lobe, dosed as 5-lipid LNP of Table 1, CD1 male mice.
Setting [3] is: Liver Rest (liver excluding left lobe), 5-lipid LNP of Table 1, CD1 male mice.
Where [4] appears, read: Lung Right Lobes, 5-lipid LNP of Table 1, CD1 male mice.
Setting [5] is: Plasma, 5-lipid LNP of Table 1, CD1 male mice.
[6] abbreviates: Spleen, 5-lipid LNP of Table 1, CD1 male mice.

Regarding bleomycin, the “senescence (P21)” value in the series on P21 is “Increase in senescence”.

For orientation: half-life means the time needed for the level to fall by half in the phase considered. For the compound `CCCCCCCC/C=C\CCCCCCCC(=O)OCC(C[N+](C)(C)C)OC(=O)CCCCCCC/C=C\CCCCCCCC` (stereo not drawn) [DOTAP, 1,2-dioleoyl-3-trimethylammonium-propane], the Decay constant is listed as 0.066 in series [1] (setting [2]); 0.050 in series [1] (setting [3]); 0.094 in series [1] (Lung Left Lobe, 5-lipid LNP of Table 1, CD1 male mice); 0.073 in series [1] (setting [4]); 0.191 in series [1] (setting [5]); 0.136 in series [1] (setting [6]). Besides, the half-life in series [1] (setting [2]) is 10.5 h; in series [1] (setting [3]), 13.8 h; in series [1] (setting [4]), 9.51 h; in series [1] (setting [5]) it was 3.63 h; in series [1] (setting [6]), 5.09 h.

The values above are taken from patent US20260345507A1, “COMPOSITIONS AND METHODS FOR DELIVERY OF RNA” (REJUVENATION TECHNOLOGIES, INC., priority 2022, published 2026).
